Molecules are shown by their SMILES.

This assay concerns RKO p21 uninduced (proliferating) colon adenocarcinoma cells. Put plainly: Alamar Blue cell viability assay, RKO p21 uninduced (proliferating). Type of assay: cell-based. The settings on record: Homo sapiens, Table B3, anti-proliferative/cytotoxic activity, 72 hours, read-out: −log EC50 RKO p21 uninduced (proliferating) (converted). The method in brief:
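Viability read by Alamar Blue fluorescence (ex 544, em 590 nm), normalised to untreated wells, after 72 h, 37° C, 5% CO2 compound exposure in triplicate. Cells were uninduced (no Ponasterone A), proliferating RKO colon carcinoma p27 or p21 subclones in DMEM with 10% FCS; values are −log EC50 (mol/l).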
For orientation: Alamar Blue is a resazurin reagent that responds to reducing activity.
The term EC50 denotes the concentration giving half of the maximal effect. Take `C[C@@]12Cc3c([nH]c4cc(F)c(Cl)cc34)[C@@H](c3cccc(O)c3)N1C(=O)N(CCCN1CCCC1)C2=O` (racemic) [Example 476, (3aSR,10RS)-6-Chloro-7-fluoro-10-(3-hydroxy-phenyl)-3a-methyl-2-(3-pyrrolidin-1-yl-propyl)-3a,4,9,10-tetrahydro-2,9,10a-triaza-cyclopenta[b]fluorene-1,3-dione]: the EC50 is no more than 39.8 nM.

As to `COCCNCCN1C(=O)N2[C@H](c3cccc(O)c3)c3[nH]c4cc(F)c(OC)cc4c3C[C@@]2(C)C1=O` (racemic) [Example 253, (3aSR,10RS)-7-Fluoro-10-(3-hydroxy-phenyl)-6-methoxy-2-[2-(2-methoxy-ethylamino)-ethyl]-3a-methyl-3a,4,9,10-tetrahydro-2,9,10a-triaza-cyclopenta[b]fluorene-1,3-dione], the EC50 was 39.8 to 251 nM.

Regarding `C#CCNCCCN1C(=O)N2[C@H](c3cccc(O)c3)c3[nH]c4ccc(OC)cc4c3C[C@@]2(C)C1=O` [Example 539, (3aS,10R)-10-(3-Hydroxy-phenyl)-6-methoxy-3a-methyl-2-(3-prop-2-ynylamino-propyl)-3a,4,9,10-tetrahydro-2,9,10a-triaza-cyclopenta[b]fluorene-1,3-dione], the EC50 is no more than 39.8 nM.

For the molecule `CCN(CCCN1C(=O)N2[C@H](c3cccc(O)c3)c3[nH]c4ccc(OC)cc4c3C[C@@]2(C)C1=O)CCOC` [Example 544, (3aS,10R)-2-{3-[Ethyl-(2-methoxy-ethyl)-amino]-propyl}-10-(3-hydroxy-phenyl)-6-methoxy-3a-methyl-3a,4,9,10-tetrahydro-2,9,10a-triaza-cyclopenta[b]fluorene-1,3-dione], the EC50 is no more than 39.8 nM.

In the case of `CC1CCN(CCN2C(=O)N3[C@H](c4cccc(O)c4)c4[nH]c5cc(F)c(Cl)cc5c4C[C@@]3(C)C2=O)CC1` (racemic) [Example 357, (3aSR,10RS)-6-Chloro-7-fluoro-10-(3-hydroxy-phenyl)-3a-methyl-2-[2-(4-methyl-piperidin-1-yl)-ethyl]-3a,4,9,10-tetrahydro-2,9,10a-triaza-cyclopenta[b]fluorene-1,3-dione], the EC50 was 39.8 to 251 nM.

As for `CCOc1ccc2[nH]c3c(c2c1)C[C@@]1(C)C(=O)N(CCNCC(C)C)C(=O)N1[C@@H]3c1cccc(O)c1` (racemic) [Example 153, (3aSR,10RS)-6-Ethoxy-10-(3-hydroxy-phenyl)-2-(2-isobutylamino-ethyl)-3a-methyl-3a,4,9,10-tetrahydro-2,9,10a-triaza-cyclopenta[b]fluorene-1,3-dione], the EC50 was no more than 39.8 nM.

`CCOc1ccc2[nH]c3c(c2c1)C[C@@]1(C)C(=O)N(CCNCCO)C(=O)N1[C@@H]3c1cccc(O)c1` (racemic) [Example 159, (3aSR,10RS)-6-Ethoxy-2-[2-(2-hydroxy-ethylamino)-ethyl]-10-(3-hydroxy-phenyl)-3a-methyl-3a,4,9,10-tetrahydro-2,9,10a-triaza-cyclopenta[b]fluorene-1,3-dione]: the EC50 was 39.8 to 251 nM.

On to `CCOc1ccc2[nH]c3c(c2c1)C[C@@]1(C)C(=O)N(CCN(CC)CCO)C(=O)N1[C@@H]3c1cccc(O)c1` (racemic) [Example 298, (3aSR,10RS)-6-Ethoxy-2-{2-[ethyl-(2-hydroxy-ethyl)-amino]-ethyl}-10-(3-hydroxy-phenyl)-3a-methyl-3a,4,9,10-tetrahydro-2,9,10a-triaza-cyclopenta[b]fluorene-1,3-dione], for which the EC50 was 39.8 to 251 nM.

Consider `C[C@@]12Cc3c([nH]c4ccc(Br)cc34)[C@@H](c3cccc(O)c3)N1C(=O)N(CCCNCC1CC1)C2=O` (racemic) [Example 234, (3aSR,10RS)-6-Bromo-2-[3-(cyclopropylmethyl-amino)-propyl]-10-(3-hydroxy-phenyl)-3a-methyl-3a,4,9,10-tetrahydro-2,9,10a-triaza-cyclopenta[b]fluorene-1,3-dione], for which the EC50 is no more than 39.8 nM.

With `C=CCN(C)CCCN1C(=O)N2[C@H](c3cccc(O)c3)c3[nH]c4ccc(OCC)cc4c3C[C@@]2(C)C1=O` (racemic) [Example 196, (3aSR,10RS)-2-[3-(Allyl-methyl-amino)-propyl]-6-ethoxy-10-(3-hydroyx-phenyl)-3a-methyl-3a,4,9,10-tetrahydro-2,9,10a-triaza-cyclopenta[b]fluorene-1,3-dione], the EC50 was 39.8 to 251 nM.

In the case of `CC(C)(C)NCCN1C(=O)N2[C@H](c3cccc(O)c3)c3[nH]c4ccc(Br)cc4c3C[C@@]2(C)C1=O` (racemic) [Example 378, (3aSR,10RS)-6-Bromo-2-(2-tert-butylamino-ethyl)-10-(3-hydroxy-phenyl)-3a-methyl-3a,4,9,10-tetrahydro-2,9,10a-triaza-cyclopenta[b]fluorene-1,3-dione], the EC50 was no more than 39.8 nM.

For the molecule `CCN(CCOC)CCN1C(=O)N2[C@H](c3cccc(O)c3)c3[nH]c4cc(F)c(OC)cc4c3C[C@@]2(C)C1=O` (racemic) [Example 454, (3aSR,10RS)-2-{2-[Ethyl-(2-methoxy-ethyl)-amino]-ethyl}-7-fluoro-10-(3-hydroxy-phenyl)-6-methoxy-3a-methyl-3a,4,9,10-tetrahydro-2,9,10a-triaza-cyclopenta[b]fluorene-1,3-dione], the EC50 was 39.8 to 251 nM.

As for `C[C@@]12Cc3c([nH]c4ccc(OC(F)F)cc34)[C@@H](c3cccc(O)c3)N1C(=O)N(CCNC1CCC1)C2=O` (racemic) [Example 272, (3aSR,10RS)-2-(2-Cyclobutylamino-ethyl)-6-(1,1-difluoro-methoxy)-10-(3-hydroxy-phenyl)-3a-methyl-3a,4,9,10-tetrahydro-2,9,10a-triaza-cyclopenta[b]fluorene-1,3-dione], the EC50 was no more than 39.8 nM.

For the molecule `CN1CCN(CCCN2C(=O)N3[C@H](c4cccc(O)c4)c4[nH]c5ccc(OC(F)F)cc5c4C[C@@]3(C)C2=O)CC1` (racemic) [Example 240, (3aSR,10RS)-6-(1,1-Difluoro-methoxy)-10-(3-hydroyx-phenyl)-3a-methyl-2-[3-(4-methyl-piperazin-1-yl)-propyl]-3a,4,9,10-tetrahydro-2,9,10a-triaza-cyclopenta[b]fluorene-1,3-dione], the EC50 is 39.8 to 251 nM.

Regarding `C[C@@]12Cc3c([nH]c4ccc(Cl)cc34)[C@@H](c3cccc(O)c3)N1C(=O)N(CCCN1CCCCC1)C2=O` (racemic) [Example 181, (3aSR,10RS)-6-Chloro-10-(3-hydroxy-phenyl)-3a-methyl-2-(3-piperidin-1-yl-propyl)-3a,4,9,10-tetrahydro-2,9,10a-triaza-cyclopenta[b]fluorene-1,3-dione], the concentration giving a half-maximal response (EC50) is no more than 39.8 nM.

With `CC(C)(C)NCCCN1C(=O)N2[C@H](c3cccc(O)c3)c3[nH]c4cc(F)c(Cl)cc4c3C[C@@]2(C)C1=O` (racemic) [Example 464, (3aSR,10RS)-2-(3-tert-Butylamino-propyl)-6-chloro-7-fluoro-10-(3-hydroxy-phenyl)-3a-methyl-3a,4,9,10-tetrahydro-2,9,10a-triaza-cyclopenta[b]fluorene-1,3-dione], the EC50 was 39.8 to 251 nM.

With `CCNCCN1C(=O)N2[C@H](c3cccc(O)c3)c3[nH]c4ccc(OC)c(F)c4c3C[C@@]2(C)C1=O` (racemic) [Example 407, (3aSR,10RS)-2-(2-Ethylamino-ethyl)-5-fluoro-10-(3-hydroxy-phenyl)-6-methoxy-3a-methyl-3a,4,9,10-tetrahydro-2,9,10a-triaza-cyclopenta[b]fluorene-1,3-dione], the EC50 was 39.8 to 251 nM.

As to `C[C@@]12Cc3c([nH]c4ccc(OC(F)F)cc34)[C@@H](c3cccc(O)c3)N1C(=O)N(CCN1CC=CCC1)C2=O` (racemic) [Example 281, (3aSR,10RS)-6-(1,1-Difluoro-methoxy)-2-[2-(3,6-dihydro-2H-pyridin-1-yl)-ethyl]-10-(3-hydroxy-phenyl)-3a-methyl-3a,4,9,10-tetrahydro-2,9,10a-triaza-cyclopenta[b]fluorene-1,3-dione], the concentration giving a half-maximal response (EC50) was 39.8 to 251 nM.

On to `COCCNCCCN1C(=O)N2[C@H](c3cccc(O)c3)c3[nH]c4ccc(Cl)cc4c3C[C@@]2(C)C1=O` (racemic) [Example 185, (3aSR,10RS)-6-Chloro-10-(3-hydroxy-phenyl)-2-[3-(2-methoxy-ethylamino)-propyl]-3a-methyl-3a,4,9,10-tetrahydro-2,9,10a-triaza-cyclopenta[b]fluorene-1,3-dione], for which the EC50 was no more than 39.8 nM.

As for `C[C@@]12Cc3c([nH]c4cc(F)c(Cl)cc34)[C@@H](c3cccc(O)c3)N1C(=O)N(CCN1CCCCC1)C2=O` (racemic) [Example 356, (3aSR,10RS)-6-Chloro-7-fluoro-10-(3-hydroxy-phenyl)-3a-methyl-2-(2-piperidin-1-yl-ethyl)-3a,4,9,10-tetrahydro-2,9,10a-triaza-cyclopenta[b]fluorene-1,3-dione], the EC50 was 39.8 to 251 nM.

As to `C=CCN(C)CCCN1C(=O)N2[C@H](c3cccc(O)c3)c3[nH]c4ccc(Br)cc4c3C[C@@]2(C)C1=O` (racemic) [Example 371, (3aSR,10RS)-2-[3-(Allyl-methyl-amino)-propyl]-6-bromo-10-(3-hydroxy-phenyl)-3a-methyl-3a,4,9,10-tetrahydro-2,9,10a-triaza-cyclopenta[b]fluorene-1,3-dione], the EC50 was no more than 39.8 nM.

For `CC1CCN(CCN2C(=O)N3[C@H](c4cccc(O)c4)c4[nH]c5ccc(OC(F)F)cc5c4C[C@@]3(C)C2=O)CC1` (racemic) [Example 293, (3aSR,10RS)-6-(1,1-Difluoro-methoxy)-10-(3-hydroxy-phenyl)-3a-methyl-2-[2-(4-methyl-piperidin-1-yl)-ethyl]-3a,4,9,10-tetrahydro-2,9,10a-triaza-cyclopenta[b]fluorene-1,3-dione], the EC50 was 39.8 to 251 nM.

With `CC(C)(C)NCCCN1C(=O)N2[C@H](c3cccc(O)c3)c3[nH]c4ccc(OC(F)F)cc4c3C[C@@]2(C)C1=O` (racemic) [Example 182, (3aSR,10RS)-2-(3-tert-Butylamino-propyl)-6-(1,1-difluoro-methoxy)-10-(3-hydroxy-phenyl)-3a-methyl-3a,4,9,10-tetrahydro-2,9,10a-triaza-cyclopenta[b]fluorene-1,3-dione], the EC50 was no more than 39.8 nM.

(Values after patent publication US8530493B2, “Indolopyridines as Eg5 kinesin modulators” (4SC AG, priority 2006, dated 2013).)
